From patent publication US9145425B2, “Cephem compound having catechol group” (SHIONOGI & CO., LTD., priority 2010, dated 2015)
≈ marks a conversion by molar mass, not a printed value.

What was measured:
Type in all cases: cell-based
[1] = test system: Acinetobacter baumannii SR24396; assay: Minimum Inhibitory Concentration (MIC), agar plate incubation, Japan Society for Chemotherapy standard method; details: Acinetobacter baumannii SR24396, no enzyme, 1000 cfu/spot, sensitive disc medium; for MIC: read-out: Minimum Inhibitory Concentration (MIC)
Description: (§1) The antimicrobial activity in vitro of the present compound (I) was determined.
(§2) Measurement of Minimum Inhibitory Concentration (MIC, μg/ml) was conducted according to the standard method of the Japan Society for Chemotherapy and the amount of bacteria for inoculation was 1000 cfu/spot, and sensitive disc medium was used as the test medium, and conducted using agar plate incubation.
(§3) In the tables, the unit of the values of inhibitory activity is μg/ml.

[2] = test system: Pseudomonas aeruginosa SR24; assay: as above; details: Pseudomonas aeruginosa SR24, no enzyme, ceftazidime sensitive strain, 1000 cfu/spot, sensitive disc medium; for MIC: read-out: Minimum Inhibitory Concentration (MIC)
Description: as §1, §2, §3

[3] = test system: Klebsiella pneumoniae ATCC 700603; assay: as above; details: Klebsiella pneumoniae ATCC 700603, SHV-18, ESBL producer strain, 1000 cfu/spot, sensitive disc medium; for MIC: ATCC700603, read-out: Minimum Inhibitory Concentration (MIC)
Description: as §1, §2, §3

[4] = test system: Pseudomonas aeruginosa SR27060; assay: as above; details: Pseudomonas aeruginosa SR27060, IMP-1, MBL producer strain (carbapenem resistant strain), 1000 cfu/spot, sensitive disc medium; for MIC: read-out: Minimum Inhibitory Concentration (MIC)
Description: as §1, §2, §3

[5] = test system: Stenotrophomonas maltophilia SR21970; assay: Minimum Inhibitory Concentration (MIC), agar plate incubation, CLSI method; details: Stenotrophomonas maltophilia SR21970, L-1, MBL producer strain (carbapenem resistant strain), 10000 cfu/spot, Mueller-Hinton agar medium; for MIC: read-out: Minimum Inhibitory Concentration (MIC)
Description: as §1
Measurement of Minimum Inhibitory Concentration (MIC, μg/ml) was conducted according to the CLSI (Clinical and Laboratory Standards Institute) and the amount of bacteria for inoculation was 10000 cfu/spot, and Mueller-Hinton agar medium was used as the test medium, and conducted using agar plate incubation.
as §3

| SMILES | Minimum Inhibitory Concentration (MIC) [1] | Minimum Inhibitory Concentration (MIC) [2] | Minimum Inhibitory Concentration (MIC) [3] | Minimum Inhibitory Concentration (MIC) [4] | Minimum Inhibitory Concentration (MIC) [5] | MIC [1] | MIC [2] | MIC [3] | MIC [4] | MIC [5] |
| --- | --- | --- | --- | --- | --- | --- | --- | --- | --- | --- |
| CC(C)(O/N=C(\C(=O)N[C@@H]1C(=O)N2C(C(=O)[O-])=C(C[N+]3(CCNC(=O)c4cc(O)c(O)c(F)c4)CCCC3)CS[C@H]12)c1csc(N)n1)C(=O)[O-].[Na+] [II-15] | 0.125 µg/mL | 0.063 µg/mL | 0.125 µg/mL | 0.25 µg/mL | 0.5 µg/mL |  |  |  |  |  |
| Nc1nc(C(=NOC(CC(=O)[O-])C(=O)[O-])C(=O)NC2C(=O)N3C(C(=O)[O-])=C(C[N+]45CCCC4CN(C(=O)c4cc(O)c(O)c(F)c4)CC5)CSC23)cs1.[Na+].[Na+] (centres unmarked) [II-16] | 0.125 µg/mL | 0.125 µg/mL | 0.25 µg/mL | 0.5 µg/mL | 0.5 µg/mL |  |  |  |  |  |
| C[C@@H](O/N=C(\C(=O)N[C@@H]1C(=O)N2C(C(=O)O)=C(C[N@@+]34CC[C@@H](C3)N(C(=O)c3ccc(O)c(O)c3Cl)CC4)CS[C@H]12)c1csc(N)n1)C(=O)[O-] [II-25] |  |  |  |  |  | 0.063 µg/mL (≈ 0.0856 µM) | 0.125 µg/mL (≈ 0.17 µM) | 0.5 µg/mL (≈ 0.679 µM) | 1 µg/mL (≈ 1.36 µM) | 1 µg/mL (≈ 1.36 µM) |
| Nc1nc(C(=NOC(CC(=O)[O-])C(=O)[O-])C(=O)NC2C(=O)N3C(C(=O)[O-])=C(C[N+]45CCCC4CN(C(=O)c4ccc(O)c(O)c4F)CC5)CSC23)cs1.[Na+].[Na+] (centres unmarked) [II-28] | 0.125 µg/mL | 0.125 µg/mL | 0.25 µg/mL | 1 µg/mL | 0.5 µg/mL |  |  |  |  |  |
| CC(C)(O/N=C(\C(=O)N[C@@H]1C(=O)N2C(C(=O)O)=C(C[N+]3(CCNC(=O)c4ccc(O)c(O)c4F)CCCC3)CS[C@H]12)c1csc(N)n1)C(=O)[O-] [II-29] |  |  |  |  |  | 0.25 µg/mL (≈ 0.34 µM) | 0.125 µg/mL (≈ 0.17 µM) | 0.125 µg/mL (≈ 0.17 µM) | 0.5 µg/mL (≈ 0.68 µM) | 0.5 µg/mL (≈ 0.68 µM) |
| CC(C)(O/N=C(\C(=O)N[C@@H]1C(=O)N2C(C(=O)O)=C(C[N+]3(C)[C@@H]4CC[C@H]3C[C@@H](NC(=O)c3ccc(O)c(O)c3F)C4)CS[C@H]12)c1csc(N)n1)C(=O)[O-] (some centres unmarked) [II-36] |  |  |  |  |  | 0.25 µg/mL (≈ 0.328 µM) | 0.25 µg/mL (≈ 0.328 µM) | 0.5 µg/mL (≈ 0.656 µM) | 0.5 µg/mL (≈ 0.656 µM) | 1 µg/mL (≈ 1.31 µM) |
| C[N+]1(CC2=C(C(=O)[O-])N3C(=O)[C@@H](NC(=O)/C(=N\O[C@@H](CC(=O)[O-])C(=O)[O-])c4csc(N)n4)[C@H]3SC2)[C@@H]2CC[C@H]1C[C@@H](NC(=O)c1ccc(O)c(O)c1F)C2.[Na+].[Na+] (some centres unmarked) [II-37] | 0.25 µg/mL | 0.25 µg/mL | 0.5 µg/mL | 0.25 µg/mL | 0.5 µg/mL |  |  |  |  |  |
| CC(C)(O/N=C(\C(=O)N[C@@H]1C(=O)N2C(C(=O)O)=C(C[N+]3(C)[C@@H]4CC[C@H]3C[C@@H](NC(=O)c3cc(O)c(O)c(F)c3)C4)CS[C@H]12)c1csc(N)n1)C(=O)[O-] (some centres unmarked) [II-47] |  |  |  |  |  | 0.25 µg/mL (≈ 0.328 µM) | 0.063 µg/mL (≈ 0.0827 µM) | 0.25 µg/mL (≈ 0.328 µM) | 0.25 µg/mL (≈ 0.328 µM) | 0.5 µg/mL (≈ 0.656 µM) |
| C[N+]1(CC2=C(C(=O)[O-])N3C(=O)[C@@H](NC(=O)/C(=N\O[C@@H](CC(=O)[O-])C(=O)[O-])c4csc(N)n4)[C@H]3SC2)[C@@H]2CC[C@H]1C[C@@H](NC(=O)c1cc(O)c(O)c(F)c1)C2.[Na+].[Na+] (some centres unmarked) [II-48] | 0.125 µg/mL | 0.063 µg/mL | 0.25 µg/mL | 0.25 µg/mL | 0.5 µg/mL |  |  |  |  |  |
| CC(C)(O/N=C(\C(=O)N[C@@H]1C(=O)N2C(C(=O)O)=C(C[N+]3(CCNC(=O)c4cc(O)c(O)c(Cl)c4)CCCC3)CS[C@H]12)c1csc(N)n1)C(=O)[O-] [II-49] |  |  |  |  |  | 0.125 µg/mL (≈ 0.166 µM) | 0.125 µg/mL (≈ 0.166 µM) | 0.125 µg/mL (≈ 0.166 µM) | 0.5 µg/mL (≈ 0.665 µM) | 0.5 µg/mL (≈ 0.665 µM) |
